Source: publication PMC7305236, “The atypical chemokine receptor ACKR3/CXCR7 is a broad-spectrum scavenger for opioid peptides” (Nature Communications, 2020)
Like-named read-outs stand apart in the source and are kept apart here. Starred links: 1 amine or outer side, 2 acyl side, 3 side chain; linkers in the order of their positions; H or OH if unused. Non-standard residues stand in square brackets, D forms with d. Residues, ends and D or L forms follow the SMILES beside them. X1 = N[C@@H](Cc1ccccc1)CN(CC(=O)[*:2])[*:1]

What was measured:
Assay in all cases: Figure S2a opioid peptide screen on chemokine receptors
Assay type in all cases: cell-based
Set-up in all cases: dose or concentration left out as unconfirmed
XCR1 = target: T1, XCR1 (Homo sapiens, UniProt P46094)
T1 construct: expressed in transfected cells
T1 sequence (P46094 1-333): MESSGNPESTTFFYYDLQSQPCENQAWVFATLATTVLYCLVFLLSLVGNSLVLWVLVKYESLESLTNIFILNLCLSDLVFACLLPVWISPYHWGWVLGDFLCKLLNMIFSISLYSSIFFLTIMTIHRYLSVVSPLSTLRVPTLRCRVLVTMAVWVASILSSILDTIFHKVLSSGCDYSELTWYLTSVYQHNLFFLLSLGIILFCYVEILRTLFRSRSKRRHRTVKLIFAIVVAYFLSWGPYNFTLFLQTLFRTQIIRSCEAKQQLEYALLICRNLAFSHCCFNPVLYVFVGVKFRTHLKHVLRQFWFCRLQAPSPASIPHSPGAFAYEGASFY

CCR4 = target: T2, CCR4 (Homo sapiens, UniProt P51679)
T2 construct: expressed in transfected cells
T2 sequence (P51679 1-360): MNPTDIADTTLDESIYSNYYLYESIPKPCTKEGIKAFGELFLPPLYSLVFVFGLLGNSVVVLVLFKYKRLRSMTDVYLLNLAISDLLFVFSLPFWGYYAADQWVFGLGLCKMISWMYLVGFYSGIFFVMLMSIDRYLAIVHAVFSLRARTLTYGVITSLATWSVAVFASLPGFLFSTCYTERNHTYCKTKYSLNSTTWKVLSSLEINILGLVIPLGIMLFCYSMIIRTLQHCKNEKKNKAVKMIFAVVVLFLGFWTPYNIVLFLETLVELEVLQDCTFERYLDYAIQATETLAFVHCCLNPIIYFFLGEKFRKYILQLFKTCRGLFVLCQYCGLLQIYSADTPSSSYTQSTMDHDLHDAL

CXCR1 = target: T3, CXCR1 (Homo sapiens, UniProt P25024)
T3 construct: expressed in transfected cells
T3 sequence (P25024 1-350): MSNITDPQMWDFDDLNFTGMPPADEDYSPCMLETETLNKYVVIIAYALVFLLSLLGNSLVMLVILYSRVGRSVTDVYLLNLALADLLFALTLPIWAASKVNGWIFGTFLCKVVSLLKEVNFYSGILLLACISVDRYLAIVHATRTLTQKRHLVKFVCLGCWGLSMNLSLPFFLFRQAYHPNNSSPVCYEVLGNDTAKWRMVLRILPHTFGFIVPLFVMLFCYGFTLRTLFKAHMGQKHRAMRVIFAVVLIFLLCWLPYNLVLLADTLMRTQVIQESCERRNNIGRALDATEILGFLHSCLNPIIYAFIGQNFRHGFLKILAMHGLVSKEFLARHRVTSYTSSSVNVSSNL

CCR10 = target: T4, CCR10 (Homo sapiens, UniProt P46092)
T4 construct: expressed in transfected cells
T4 sequence (P46092 1-362): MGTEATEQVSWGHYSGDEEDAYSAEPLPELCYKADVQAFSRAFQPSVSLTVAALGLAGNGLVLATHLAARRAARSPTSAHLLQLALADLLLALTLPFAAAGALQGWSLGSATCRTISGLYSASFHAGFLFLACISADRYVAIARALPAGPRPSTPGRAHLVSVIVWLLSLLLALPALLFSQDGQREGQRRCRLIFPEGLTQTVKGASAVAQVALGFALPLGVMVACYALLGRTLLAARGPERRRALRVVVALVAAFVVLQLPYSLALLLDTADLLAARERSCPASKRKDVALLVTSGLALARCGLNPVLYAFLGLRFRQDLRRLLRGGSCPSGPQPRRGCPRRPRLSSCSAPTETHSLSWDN

CCR6 = target: T5, CCR6 (Homo sapiens, UniProt P51684)
T5 construct: expressed in transfected cells
T5 sequence (P51684 1-374): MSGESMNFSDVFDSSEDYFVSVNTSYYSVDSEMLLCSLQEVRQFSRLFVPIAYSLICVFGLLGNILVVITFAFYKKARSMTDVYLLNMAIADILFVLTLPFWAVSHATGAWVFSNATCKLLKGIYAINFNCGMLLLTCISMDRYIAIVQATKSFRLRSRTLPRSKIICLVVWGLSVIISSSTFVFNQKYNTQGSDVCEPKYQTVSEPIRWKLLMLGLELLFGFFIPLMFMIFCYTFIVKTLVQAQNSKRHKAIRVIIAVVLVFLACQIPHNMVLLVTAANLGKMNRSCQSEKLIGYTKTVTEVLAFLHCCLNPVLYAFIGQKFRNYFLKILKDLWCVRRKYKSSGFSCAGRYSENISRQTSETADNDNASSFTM

CXCR2 = target: T6, CXCR2 (Homo sapiens, UniProt P25025)
T6 construct: expressed in transfected cells
T6 sequence (P25025 1-360): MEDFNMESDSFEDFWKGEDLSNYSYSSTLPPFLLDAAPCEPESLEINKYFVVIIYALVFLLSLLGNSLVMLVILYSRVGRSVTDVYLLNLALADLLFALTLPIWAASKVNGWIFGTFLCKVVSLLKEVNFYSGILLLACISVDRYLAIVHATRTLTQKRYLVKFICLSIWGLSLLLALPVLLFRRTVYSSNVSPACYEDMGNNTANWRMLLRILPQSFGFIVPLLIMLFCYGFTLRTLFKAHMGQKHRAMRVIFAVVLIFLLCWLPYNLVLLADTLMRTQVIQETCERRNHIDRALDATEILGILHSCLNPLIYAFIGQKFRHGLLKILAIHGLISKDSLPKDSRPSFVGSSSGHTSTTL

CCR5 = target: T7, CCR5 (Homo sapiens, UniProt P51681)
T7 construct: expressed in transfected cells
T7 sequence (P51681 whole entry): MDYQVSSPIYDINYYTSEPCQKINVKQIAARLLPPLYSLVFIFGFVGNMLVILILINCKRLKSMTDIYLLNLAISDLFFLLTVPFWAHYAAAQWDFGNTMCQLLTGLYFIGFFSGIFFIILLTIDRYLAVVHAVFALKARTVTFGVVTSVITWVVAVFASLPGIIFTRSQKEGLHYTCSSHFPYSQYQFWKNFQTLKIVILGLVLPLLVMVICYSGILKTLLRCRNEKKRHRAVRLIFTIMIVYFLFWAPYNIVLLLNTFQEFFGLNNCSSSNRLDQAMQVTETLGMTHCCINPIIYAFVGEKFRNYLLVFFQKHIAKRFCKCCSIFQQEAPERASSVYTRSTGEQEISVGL

[1] = replicate 1, read-out: XCR1 activity, ctrl+ = 100
[2] = replicate 2, read-out: XCR1 activity, ctrl+ = 100
[3] = replicate 3, read-out: XCR1 activity, ctrl+ = 100
[4] = replicate 1, read-out: CCR4 activity, ctrl+ = 100
[5] = replicate 2, read-out: CCR4 activity, ctrl+ = 100
[6] = replicate 3, read-out: CCR4 activity, ctrl+ = 100
[7] = replicate 1, read-out: CXCR1 activity, ctrl+ = 100
[8] = replicate 2, read-out: CXCR1 activity, ctrl+ = 100
[9] = replicate 3, read-out: CXCR1 activity, ctrl+ = 100
[10] = replicate 1, read-out: CCR10 activity, ctrl+ = 100
[11] = replicate 2, read-out: CCR10 activity, ctrl+ = 100
[12] = replicate 3, read-out: CCR10 activity, ctrl+ = 100
[13] = replicate 1, read-out: CCR6 activity, ctrl+ = 100
[14] = replicate 2, read-out: CCR6 activity, ctrl+ = 100
[15] = replicate 3, read-out: CCR6 activity, ctrl+ = 100
[16] = replicate 1, read-out: CXCR2 activity, ctrl+ = 100
[17] = replicate 2, read-out: CXCR2 activity, ctrl+ = 100
[18] = replicate 3, read-out: CXCR2 activity, ctrl+ = 100
[19] = replicate 1, read-out: CCR5 activity, ctrl+ = 100
[20] = replicate 2, read-out: CCR5 activity, ctrl+ = 100
[21] = replicate 3, read-out: CCR5 activity, ctrl+ = 100

SMILES	activation (XCR1; [1]) [%]	activation (XCR1; [2]) [%]	activation (XCR1; [3]) [%]	activation (CCR4; [4]) [%]	activation (CCR4; [5]) [%]	activation (CCR4; [6]) [%]	activation (CXCR1; [7]) [%]	activation (CXCR1; [8]) [%]	activation (CXCR1; [9]) [%]	activation (CCR10; [10]) [%]	activation (CCR10; [11]) [%]	activation (CCR10; [12]) [%]	activation (CCR6; [13]) [%]	activation (CCR6; [14]) [%]	activation (CCR6; [15]) [%]	activation (CXCR2; [16]) [%]	activation (CXCR2; [17]) [%]	activation (CXCR2; [18]) [%]	activation (CCR5; [19]) [%]	activation (CCR5; [20]) [%]	further results
C[C@H](NC(=O)CNC(=O)[C@@H](NC(=O)[C@H](Cc1ccccc1)NC(=O)CNC(=O)CNC[C@@H](N)Cc1ccccc1)[C@@H](C)O)C(=O)N[C@@H](CCCNC(=N)N)C(=O)N[C@@H](CCCCN)C(=O)N[C@@H](CO)C(=O)N[C@@H](C)C(=O)N[C@@H](CCCNC(=N)N)C(=O)N[C@@H](CCCCN)C(N)=O [FG Nociceptin 1-13] (H-[X1]GFTGARKSARK-NH2)	0.7	1.1	16.8	-0.803	-1.43	-2.08	-0.231	1.41	1.07	-1.11	-2.39	7.95	0.145	-0.683	5.07	-5.21	-6.16	-0.318	-0.325	0.224	activation (CCR5; [21]): 0.582%
CSCC[C@H](NC(=O)[C@H](Cc1ccccc1)NC(=O)CNC(=O)CNC(=O)[C@@H](N)Cc1ccc(O)cc1)C(=O)N[C@@H](CCCNC(=N)N)C(=O)N[C@@H](CCCNC(=N)N)C(=O)N[C@H](C(=O)NCC(=O)N[C@@H](CCCNC(=N)N)C(=O)N1CCC[C@H]1C(=O)N[C@@H](CCC(=O)O)C(=O)N[C@@H](Cc1c[nH]c2ccccc12)C(=O)N[C@@H](Cc1c[nH]c2ccccc12)C(=O)N[C@@H](CCSC)C(=O)N[C@@H](CC(=O)O)C(=O)N[C@@H](Cc1ccc(O)cc1)C(=O)N[C@@H](CCC(N)=O)C(=O)N[C@@H](CCCCN)C(=O)N[C@@H](CCCNC(=N)N)C(=O)N[C@@H](Cc1ccc(O)cc1)C(=O)NCC(=O)O)C(C)C [BAM22]	-2.25	-4.24	8.51	-0.405	-3.44	3.02	0.211	0.0913	-0.539	-2.23	-4.92	-3.25	-2.07	-2.99	-1.86	-3.38	-4.91	-1.55	0.229	-1.32	activation (CCR5; [21]): -1.42%
CC[C@H](C)[C@H](NC(=O)[C@H](CCCNC(=N)N)NC(=O)[C@H](CCCNC(=N)N)NC(=O)[C@H](CC(C)C)NC(=O)[C@H](Cc1ccccc1)NC(=O)CNC(=O)CN)C(=O)N[C@@H](CCCNC(=N)N)C(=O)N1CCC[C@H]1C(=O)N[C@@H](CCCCN)C(=O)N[C@@H](CC(C)C)C(=O)N[C@@H](CCCCN)C(=O)N[C@@H](Cc1c[nH]c2ccccc12)C(=O)N[C@@H](CC(=O)O)C(=O)N[C@@H](CC(N)=O)C(=O)N[C@@H](CCC(N)=O)C(=O)O [Dynorphin 2-17]	3.87	-3.46		-4.06	-1.12		0.572	0.136		0.214	-5.55		-0.438	-1.06		-7.18	-15.9		1.32	-2.11	
NC(=O)[C@H](Cc1ccccc1)NC(=O)[C@H](Cc1c[nH]c2ccccc12)NC(=O)[C@@H]1CCCN1C(=O)[C@@H](N)Cc1ccc(O)cc1 [Endomorphin-1]	4.23	6.11		0.589	-1.89		0.195	-0.597		-5.29	7.53		0.653	2.69		0.676	-3.23		0.726	-0.866	
